The target of test [1] is T1, Sigma intracellular receptor 2 (Rattus norvegicus, UniProt Q5U3Y7).
T1 sequence (Q5U3Y7 whole entry): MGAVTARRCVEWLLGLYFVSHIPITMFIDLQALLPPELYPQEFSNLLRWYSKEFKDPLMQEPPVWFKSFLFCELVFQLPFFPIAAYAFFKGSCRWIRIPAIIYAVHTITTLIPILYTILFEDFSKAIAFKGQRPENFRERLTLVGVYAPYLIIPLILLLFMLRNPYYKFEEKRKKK
Put plainly: Displacement of [3H]-di-o-tolylguanidine from sigma2 receptor in rat liver membranes incubated for 120 mins by scintillation counting method.

Test [2] has as its target Sigma non-opioid intracellular receptor 1 (Cavia porcellus, UniProt Q60492). Put plainly: Displacement of [3H]-(+)-pentazocine from sigma1 receptor in guinea pig brain cortex membranes incubated for 120 mins by scintillation counting method. (In general: Loss of bound radioactivity is the signal in a displacement assay; it reports binding, not function.)
Test [3] addresses Mu-type opioid receptor (Homo sapiens, UniProt P35372). Nature of the test: Agonist activity at human MOR expressed in CHOK1 cells assessed as reduction in forskolin-induced intracellular cAMP increase after 45 mins by HTRF analysis. Background: Time-resolved FRET reads energy transfer from a long-lived donor to a nearby acceptor.
For test [4], the target named is Delta-type opioid receptor (Rattus norvegicus, UniProt P33533). Nature of the test: Displacement of [3H]DPDPE from DOR in rat brain membranes incubated for 120 mins by scintillation counting method.
Sequence of Delta-type opioid receptor (P33533 whole entry): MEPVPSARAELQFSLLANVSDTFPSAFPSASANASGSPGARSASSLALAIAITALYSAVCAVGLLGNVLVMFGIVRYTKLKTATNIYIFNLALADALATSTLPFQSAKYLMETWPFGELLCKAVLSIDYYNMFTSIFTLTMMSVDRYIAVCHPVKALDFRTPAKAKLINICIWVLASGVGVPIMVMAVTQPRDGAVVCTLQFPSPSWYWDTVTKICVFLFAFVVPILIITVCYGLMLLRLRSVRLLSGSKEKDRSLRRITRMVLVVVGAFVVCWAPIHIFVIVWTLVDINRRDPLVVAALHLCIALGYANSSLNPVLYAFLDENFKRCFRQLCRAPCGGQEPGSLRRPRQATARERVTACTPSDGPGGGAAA
Test [5] has as its target Mu-type opioid receptor (Cavia porcellus, UniProt P97266). Put plainly: Displacement of [3H]DAMGO from MOR in guinea pig brain membranes incubated for 120 mins by scintillation counting method.
For test [6], the target named is Kappa-type opioid receptor (Cavia porcellus, UniProt P41144). Nature of the test: Displacement of [3H]U-69,593 from KOR in guinea pig brain membranes incubated for 120 mins by scintillation counting method.
Sequence of Kappa-type opioid receptor (P41144 whole entry): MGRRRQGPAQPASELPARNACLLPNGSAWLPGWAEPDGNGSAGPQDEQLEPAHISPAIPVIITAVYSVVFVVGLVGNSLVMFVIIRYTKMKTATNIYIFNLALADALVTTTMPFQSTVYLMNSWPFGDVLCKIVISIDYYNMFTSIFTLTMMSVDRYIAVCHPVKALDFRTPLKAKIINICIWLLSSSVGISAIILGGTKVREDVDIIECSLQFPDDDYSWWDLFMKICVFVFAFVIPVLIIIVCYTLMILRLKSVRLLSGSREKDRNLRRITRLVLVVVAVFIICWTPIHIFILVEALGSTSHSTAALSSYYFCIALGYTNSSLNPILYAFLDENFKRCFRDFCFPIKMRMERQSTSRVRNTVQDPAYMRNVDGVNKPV

This is an account of results in BindingDB's records for doi:10.1021/acs.jmedchem.8b01183 (2018).

Sequence of Sigma non-opioid intracellular receptor 1 (Q60492 whole entry): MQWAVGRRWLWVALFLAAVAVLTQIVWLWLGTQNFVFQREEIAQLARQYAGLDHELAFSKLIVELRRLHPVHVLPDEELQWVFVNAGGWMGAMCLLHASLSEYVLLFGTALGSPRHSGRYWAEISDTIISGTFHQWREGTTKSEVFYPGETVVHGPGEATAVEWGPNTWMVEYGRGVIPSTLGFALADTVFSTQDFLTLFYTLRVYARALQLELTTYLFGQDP
Sequence of Mu-type opioid receptor (Homo sapiens, UniProt P35372) (P35372 whole entry): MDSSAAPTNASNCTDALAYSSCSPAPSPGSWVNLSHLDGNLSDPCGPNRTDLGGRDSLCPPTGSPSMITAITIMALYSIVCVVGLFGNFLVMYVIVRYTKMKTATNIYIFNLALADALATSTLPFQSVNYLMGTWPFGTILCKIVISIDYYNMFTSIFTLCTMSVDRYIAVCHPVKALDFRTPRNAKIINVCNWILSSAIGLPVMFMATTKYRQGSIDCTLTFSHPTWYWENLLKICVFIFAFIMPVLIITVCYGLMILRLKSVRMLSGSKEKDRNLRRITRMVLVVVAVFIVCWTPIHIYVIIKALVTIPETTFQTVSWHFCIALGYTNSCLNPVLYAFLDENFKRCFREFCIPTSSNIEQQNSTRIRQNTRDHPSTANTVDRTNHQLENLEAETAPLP
Sequence of Mu-type opioid receptor (Cavia porcellus, UniProt P97266) (P97266 whole entry): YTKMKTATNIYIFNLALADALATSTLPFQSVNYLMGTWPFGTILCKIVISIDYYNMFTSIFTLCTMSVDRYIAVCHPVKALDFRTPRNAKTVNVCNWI

In general, Ki refers to the dissociation constant of the complex between target and ligand, obtained from inhibition or displacement. On to `O[C@@H]1Cc2ccccc2C2(CCC(N3CCN(C4CCCCC4)CC3)CC2)O1` (stereo partly specified), for which the affinity in test [1], expressed as Ki, was 302 nM.

Regarding `COc1cc2c(cc1OC)CN(C1CCC3(CC1)O[C@H](CCO)Cc1ccccc13)CC2` (stereo partly specified), the Ki in test [1] and in test [2] was more than 1000 nM throughout. Take `CO[C@H]1Cc2ccccc2C2(CCC(NCc3ccc(C)cc3C)CC2)O1` (stereo partly specified): the Ki in test [2] is more than 1000 nM. With `Cc1ccc(CNC2CCC3(CC2)O[C@H](CCF)Cc2ccccc23)c(C)c1` (stereo partly specified), the Ki in test [1] is 302 nM; in test [2] it was more than 1000 nM. The corresponding values for `CCOC(=O)C[C@@H]1Cc2ccccc2C2(CCC(N3CCc4cc(OC)c(OC)cc4C3)CC2)O1` (stereo partly specified) are more than 1000 nM and more than 1000 nM. On to `CO[C@@H]1Cc2ccccc2C2(CCC(NCc3ccccc3)CC2)O1` (stereo partly specified), for which the inhibition constant Ki in test [1] is more than 1000 nM. With `COc1cc2c(cc1OC)CN(C1CCC3(CC1)O[C@@H](O)Cc1ccccc13)CC2` (stereo partly specified), the Ki in test [1] and in test [2] was more than 1000 nM in each case.

As to `COc1cc2c(cc1OC)CN(C1CCC3(CC1)O[C@H](CCF)Cc1ccccc13)CC2` (stereo partly specified), the Ki in test [1] is more than 1000 nM. For the molecule `CCOC(=O)C[C@@H]1Cc2ccccc2C2(CCC(N3CCN(C4CCCCC4)CC3)CC2)O1` (stereo partly specified), the Ki in test [2] came out at 12 nM. One may read the EC50 as the concentration needed to bring the measured effect to its halfway point. With `O[C@H]1Cc2ccccc2C2(CCC(N3CCN(C4CCCCC4)CC3)CC2)O1` (stereo partly specified), at Mu-type opioid receptor [3], the EC50 is more than 10000 nM. Further, the inhibition constant Ki (in test [4]; at Mu-type opioid receptor [5]) was more than 1000 nM each time. As to `CO[C@H]1Cc2ccccc2C2(CCC(NCCCc3cn(-c4ccc(F)cc4)c4ccccc34)CC2)O1` (stereo partly specified), in test [1], the inhibition constant (Ki) was more than 1000 nM. Consider `OCC[C@H]1Cc2ccccc2C2(CCC(N3CCN(C4CCCCC4)CC3)CC2)O1` (stereo partly specified), for which the Ki in test [1] came out at 505 nM. Take `CCOC(=O)C[C@@H]1Cc2ccccc2C2(CCC(NCc3ccc(C)cc3C)CC2)O1` (stereo partly specified): in test [2], the Ki is more than 1000 nM. As for `CCOC(=O)C[C@H]1Cc2ccccc2C2(CCC(N3CCc4cc(OC)c(OC)cc4C3)CC2)O1` (stereo partly specified), the Ki in test [2] was more than 1000 nM. The same measure, in the same setting: next, `Cc1ccc(CNC2CCC3(CC2)O[C@H](CCO)Cc2ccccc23)c(C)c1` (stereo partly specified): more than 1000 nM.

The molecule `Cc1ccc(CNC2CCC3(CC2)O[C@@H](CCF)Cc2ccccc23)c(C)c1` (stereo partly specified) registered a Ki in test [1] of more than 1000 nM. In test [2], `COc1cc2c(cc1OC)CN(C1CCC3(CC1)O[C@@H](OC)Cc1ccccc13)CC2` (stereo partly specified) displayed a Ki of more than 1000 nM. With `COc1cc2c(cc1OC)CN(C1CCC3(CC1)O[C@@H](CCO)Cc1ccccc13)CC2` (stereo partly specified), the Ki in test [1] and in test [2] was more than 1000 nM in each case. With `CO[C@@H]1Cc2ccccc2C2(CCC(NCCCc3cn(-c4ccc(F)cc4)c4ccccc34)CC2)O1` (stereo partly specified), the Ki in test [1] and in test [2] was more than 1000 nM in each case. Consider `Cc1ccc(CNC2CCC3(CC2)O[C@@H](O)Cc2ccccc23)c(C)c1` (stereo partly specified), for which the Ki in test [2] was more than 1000 nM. For `FCC[C@@H]1Cc2ccccc2C2(CCC(N3CCN(C4CCCCC4)CC3)CC2)O1` (stereo partly specified), the Ki in test [6] is more than 1000 nM; in test [4], more than 1000 nM; at Mu-type opioid receptor [5] it was more than 1000 nM; in test [2], 12 nM. Molecule `FCC[C@H]1Cc2ccccc2C2(CCC(N3CCN(C4CCCCC4)CC3)CC2)O1` (stereo partly specified) yielded a Ki in test [6] of more than 1000 nM. With `COc1cc2c(cc1OC)CN(C1CCC3(CC1)O[C@@H](CCF)Cc1ccccc13)CC2` (stereo partly specified), the results for the Ki in test [1] and in test [2] were 505 nM and more than 1000 nM, respectively.

For `CCOC(=O)C[C@H]1Cc2ccccc2C2(CCC(N3CCN(C4CCCCC4)CC3)CC2)O1` (stereo partly specified), the EC50 at Mu-type opioid receptor [3] was more than 10000 nM. Further, the Ki is more than 1000 nM in test [6], more than 1000 nM in test [4] and 12 nM in test [2].

Consider `CO[C@H]1Cc2ccccc2C2(CCC(NCc3ccccc3)CC2)O1` (stereo partly specified), for which, in test [1], the Ki was more than 1000 nM. In test [2], `CO[C@@H]1Cc2ccccc2C2(CCC(NC3CCc4ccccc4CC3)CC2)O1` (stereo partly specified) registered a Ki of more than 1000 nM.
